The results in this text go back to US8648099B2 (Hoffmann-La Roche Inc., priority 2011, dated 2014).

The test system of one experiment is ABCA1 protein. Put plainly: Detection of upregulation of ABCA1 protein in cells (ApoA-I binding, high content imaging). It counts as cell-based. Particulars: THP-1 macrophage cells; for EC50: 24 hrs compound incubation, read-out: EC50 [μM] ABCA1 protein increasing efficacy; for % increase of ABCA1 at 3 μM: compound at 3 μM, 24 hrs. As for the experimental part: The ability of compounds of the invention to increase the level of ABCA1 protein is determined in replicate cultures of THP-1 macrophage cells in 96-well microplates. Cells are plated at an initial density of 100,000 cells/well in 100 μl medium and differentiated to adherent macrophages with the addition of PMA (100 nM) for 68 hrs in 10% fetal bovine serum, 3 μl/L of b-mercaptoethanol, RPMI-1640 medium. Then, cells are incubated with RPMI-1640 medium containing 1% FCS, 25 μg/ml acetylated LDL, for 24 hours at 37° C. Following incubation with acetylated LDL, cells are washed twice with 50 μl PBS and incubated with 100 μl of RPMI-1640 medium containing the compound of interest solubilized in DMSO for an additional 24 hrs. The final DMSO concentration in presence of cells is maintained at 0.5%. ApoA-I binding assay using High Content Image Analysis is initiated by replacing with fresh medium, RPMI without Phenol Red, 0.2% BSA containing AlexaFluor®647 labeled ApoA-I for 2 h/37° C./5% CO2. Then, cells are fixed with 4% Formaldehyde in PBS (15 min, RT). Following Nuclei are stained with Hoechst solution (3 μM PBS) and Cytoplasm with Cell Mask Blue (2 μg/ml PBS), 15 min, RT. Finally the stained cells are fixed with a second round of formaldehyde treatment. Fixed stained cells are washed and kept in PBS at 4° C. and can be read immediately until one month after preparation.
The Alexa Fluor 647-labeled Apolipoprotein A-I (20 nM) was prepared as follows: Human recombinant Apolipoprotein A-I (ApoA-I) was exchanged to a buffer of 0.02 M NaHCO3 at pH 8.2 on an NAP desalting column (GE Healthcare) and brought to a concentration to 40 μM (1.13 mg/ml) by adjustment with the same buffer. The ApoA-I was fluorescently labeled by incubation with Alexa Fluor carboxylic acid succimidyl ester (Alexa Fluor 647, Invitrogen A-20006) at a 2:1 molar ratio (Alexa to ApoA-I) for 1 h under shaking at RT. The remaining unconjugated label was removed by buffer exchange to 0.02M NaHCO3 at pH 8.2.
Imaging and data collection were performed on an OPERA confocal microplate imaging reader using a 20× water immersion objective and UV360 or 405 laser to identify the cell nuclei and a 635 laser to identify the fluorescent ApoA-I. Eight fields of view are captured per well. Image capture and analysis was performed with the Acapella software. Background fluorescence detected in control wells without ApoA-I was subtracted.
Using XLfit3 program (ID Business Solutions Ltd. UK), the model 205 for Dose Response One Site is used to calculate the EC50 values. […] More particularly, the compounds of the present invention have EC50 values in a range of 0.1 μM to 3 μm.

The target of the next experiment is T1, human CB1 receptor (Homo sapiens, UniProt P21554).
T1 construct: expressed in transfected cells; host or cells: human embryonic kidney (HEK) cells, Semliki Forest Virus system, membrane preparations
T1 sequence (P21554 whole entry): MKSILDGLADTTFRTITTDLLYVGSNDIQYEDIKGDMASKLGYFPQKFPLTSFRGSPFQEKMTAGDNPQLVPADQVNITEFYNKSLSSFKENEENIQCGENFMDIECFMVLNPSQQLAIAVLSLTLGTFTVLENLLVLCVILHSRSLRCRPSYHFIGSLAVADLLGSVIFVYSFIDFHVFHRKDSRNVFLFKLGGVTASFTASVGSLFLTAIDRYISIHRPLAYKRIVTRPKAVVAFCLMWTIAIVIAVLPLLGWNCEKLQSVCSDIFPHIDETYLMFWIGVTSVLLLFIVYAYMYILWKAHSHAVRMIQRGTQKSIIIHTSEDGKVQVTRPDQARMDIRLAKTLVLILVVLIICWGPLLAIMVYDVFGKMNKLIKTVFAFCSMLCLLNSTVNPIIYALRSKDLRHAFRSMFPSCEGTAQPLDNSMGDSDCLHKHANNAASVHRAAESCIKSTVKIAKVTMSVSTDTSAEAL
Kind of experiment: CB1 receptor affinity ([3H]-CP-55,940 displacement, HEK cell membranes). In kind it is binding. Particulars: displacement of [3H]-CP-55,940 at 10 μM; read-out: CB1 receptor affinity [% inhibition @ 10 μM]. As for the experimental part:
(§1) The affinity of the compounds of the invention for cannabinoid receptors was determined using membrane preparations of human embryonic kidney (HEK) cells in which the human CB1 receptor is transiently transfected using a Semliki Forest Virus system in conjunction with [3H]-CP-55,940 as radioligand. After incubation of freshly prepared cell membrane preparation with the [^3H]-ligand, with or without addition of compounds of the invention, separation of bound and free ligand was performed by filtration over glass fiber filters. Radioactivity on the filter was measured by scintillation counting.
(§2) The ability of the compounds to displace the radioligand [^3H]-CP-55,940 was measured at a concentration of 10 μM and values provided as [% inhibition @ 10 μM] both for the CB1 and CB2 receptor assay, The lower % inhibition is, the lower the likelihood of side effects based on CB1 or CB2 receptor inhibition is.
For orientation: In a radioligand displacement assay an active substance lowers the binding of a labelled ligand.

A further experiment addresses T2, human CB2 receptor (Homo sapiens, UniProt P34972).
T2 construct: expressed in transfected cells; host or cells: human embryonic kidney (HEK) cells, Semliki Forest Virus system, membrane preparations
Put plainly: CB2 receptor affinity ([3H]-CP-55,940 displacement, HEK cell membranes). It counts as binding. Particulars: displacement of [3H]-CP-55,940 at 10 μM. The protocol: as §1, with “cannabinoid CB2” for “cannabinoid”, “CB2” for “CB1”, “[^3H]-CP-55,940” for “[3H]-CP-55,940”
as §2

As a reminder, the EC50 is the concentration at which the effect is half-maximal. One may read the inhibition as the drop in the measured response relative to a control, in per cent.

T2 sequence (P34972 whole entry): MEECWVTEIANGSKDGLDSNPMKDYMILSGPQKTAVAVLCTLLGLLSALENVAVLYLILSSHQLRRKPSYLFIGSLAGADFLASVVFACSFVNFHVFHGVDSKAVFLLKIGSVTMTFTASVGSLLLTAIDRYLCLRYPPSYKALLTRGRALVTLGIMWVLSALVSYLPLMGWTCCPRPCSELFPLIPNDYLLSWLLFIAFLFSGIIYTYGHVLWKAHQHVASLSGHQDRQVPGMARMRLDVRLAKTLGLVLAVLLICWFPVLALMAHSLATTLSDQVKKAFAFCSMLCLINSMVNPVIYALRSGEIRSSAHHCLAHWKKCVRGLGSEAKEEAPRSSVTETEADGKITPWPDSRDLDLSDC

`O=C(NN1CCOCC1)c1cnc(OCC(F)(F)F)c(C2CCCCC2)c1` [Example 19, 5-cyclohexyl-N-morpholino-6-(2,2,2-trifluoroethoxy)-3-pyridinecarboxamide]: the EC50 in the experiment with ABCA1 protein came out at 5.39 µM. Further, the inhibition at 10 µM on human CB1 receptor is 29%; on human CB2 receptor, -23%.

For `CN(NC(=O)c1cnc(OCC(F)(F)F)c(C2CCCCC2)c1)c1ccccc1` [Example 20, 5-cyclohexyl-N′-methyl-N′-phenyl-6-(2,2,2-trifluoroethoxy)-3-pyridinecarboxylic acid hydrazide], the “% increase of ABCA1 at 3 μM” value with ABCA1 protein was greater than 45%@ 3 μM. Further, the inhibition at 10 µM at human CB1 receptor came out at 39%; on human CB2 receptor, 9%.

As to `O=C(NN1CCCC1)c1cnc(OCC(F)(F)F)c(C2CCCCC2)c1` [Example 21, 5-cyclohexyl-N-(pyrrolidin-1-yl)-6-(2,2,2-trifluoroethoxy)-3-pyridinecarboxamide], in the experiment with ABCA1 protein, the “% increase of ABCA1 at 3 μM” value is reported as greater than 45%@ 3 μM. Further, the values for the inhibition at 10 µM on human CB1 receptor and on human CB2 receptor were 39% and -17%, respectively.

For `CN(NC(=O)c1cnc(OCC(F)(F)F)c(C2CCCCC2)c1)c1ccc(Cl)nn1` [Example 22, N′-(6-chloropyridazin-3-yl)-5-cyclohexyl-N′-methyl-6-(2,2,2-trifluoroethoxy)-3-pyridinecarboxylic acid hydrazide], the 50% effective concentration (EC50) in the experiment with ABCA1 protein was determined as 0.98 µM. The values for the inhibition at 10 µM at human CB1 receptor and at human CB2 receptor were 28% and -9%, respectively.

For the compound `COC[C@@H]1CCCN1NC(=O)c1cnc(OCC(F)(F)F)c(C2CCCCC2)c1` [Example 23, 5-cyclohexyl-N—((S)-2-methoxymethyl-pyrrolidin-1-yl)-6-(2,2,2-trifluoro-ethoxy)-3-pyridinecarboxamide], the “% increase of ABCA1 at 3 μM” value in the experiment with ABCA1 protein is recorded as greater than 45%@ 3 μM. The results for the inhibition at 10 µM at human CB1 receptor and at human CB2 receptor were 39% and 17%, respectively.

`O=C(NN1CCC(CCO)CC1)c1cnc(OCC(F)(F)F)c(-c2ccc(Cl)cc2)c1` [Example 24, 5-(4-chlorophenyl)-N-(4-(2-hydroxyethyl)piperidin-1-yl)-6-(2,2,2-trifluoroethoxy)-3-pyridinecarboxamide]: the “% increase of ABCA1 at 3 μM” value in the experiment with ABCA1 protein was greater than 45%@ 3 μM. Besides, the inhibition at 10 µM at human CB1 receptor is 45%; at human CB2 receptor, -8%.

In the case of `O=C(NN1CCN(CCO)CC1)c1cnc(OCC(F)(F)F)c(-c2ccc(Cl)cc2)c1` [Example 25, 5-(4-chlorophenyl)-N-(4-(2-hydroxyethyl)piperazin-1-yl)-6-(2,2,2-trifluoroethoxy)-3-pyridinecarboxamide], the “% increase of ABCA1 at 3 μM” value in the experiment with ABCA1 protein is greater than 45%@ 3 μM. The inhibition at 10 µM was 14% on human CB1 receptor and -18% on human CB2 receptor.

Take `O=C(NN1CCC(CO)CC1)c1cnc(OCC(F)(F)F)c(-c2ccc(Cl)cc2)c1` [Example 26, 5-(4-chlorophenyl)-N-(4-(hydroxymethyl)piperidin-1-yl)-6-(2,2,2-trifluoroethoxy)-3-pyridinecarboxamide]: in the experiment on ABCA1 protein, the “% increase of ABCA1 at 3 μM” value was greater than 45%@ 3 μM. Further, the inhibition at 10 µM was 37% at human CB1 receptor and -17% on human CB2 receptor.

Turning to `CN1CCN(NC(=O)c2cnc(OCC(F)(F)F)c(-c3ccc(Cl)cc3)c2)CC1=O` [Example 27, 5-(4-chlorophenyl)-N-(4-methyl-3-oxopiperazin-1-yl)-6-(2,2,2-trifluoroethoxy)-3-pyridinecarboxamide], the EC50 in the experiment on ABCA1 protein turned out to be 2.39 µM. In addition, the figures for the inhibition at 10 µM on human CB1 receptor and at human CB2 receptor were 25% and -11%, respectively.

Regarding `CN(CCCO)NC(=O)c1cnc(OCC(F)(F)F)c(-c2ccc(Cl)cc2)c1` [Example 28, 5-(4-chlorophenyl)-N′-(3-hydroxypropyl)-N′-methyl-6-(2,2,2-trifluoroethoxy)-3-pyridinecarboxylic acid hydrazide], the “% increase of ABCA1 at 3 μM” value in the experiment on ABCA1 protein is on record as greater than 45%@ 3 μM. Further, the figures for the inhibition at 10 µM on human CB1 receptor and at human CB2 receptor were 46% and -9%, respectively.

For `O=C(NN1CC(O)C1)c1cnc(OCC(F)(F)F)c(-c2ccc(Cl)cc2)c1` [Example 29, 5-(4-chlorophenyl)-N-(3-hydroxyazetidin-1-yl)-6-(2,2,2-trifluoroethoxy)-3-pyridinecarboxamide], the “% increase of ABCA1 at 3 μM” value with ABCA1 protein is on record as greater than 45%@ 3 μM. Further, the inhibition at 10 µM on human CB1 receptor was 44%; at human CB2 receptor, -10%.

With `CN(NC(=O)c1cnc(OCC(F)(F)F)c(C2CC2)c1)c1ccccc1` [Example 30, 5-cyclopropyl-6-(2,2,2-trifluoro-ethoxy)-nicotinic acid N′-methyl-N′-phenyl-hydrazide], in the experiment with ABCA1 protein, the “% increase of ABCA1 at 3 μM” value is greater than 45%@ 3 μM. Also, the inhibition at 10 µM turned out to be 24% on human CB1 receptor and 13% on human CB2 receptor.

`O=C(NN1CCS(=O)(=O)CC1)c1cnc(OCC(F)(F)F)c(C2CC2)c1` [Example 31, 5-cyclopropyl-N-(1,1-dioxo-1λ6-thiomorpholin-4-yl)-6-(2,2,2-trifluoro-ethoxy)-nicotinamide]: the “% increase of ABCA1 at 3 μM” value in the experiment with ABCA1 protein is given as greater than 45%@ 3 μM. In addition, the inhibition at 10 µM is -2% at human CB1 receptor and -14% at human CB2 receptor.

Turning to `O=C(NN1CCOCC1)c1cnc(OCC(F)(F)F)c(C2CC2)c1` [Example 32, 5-cyclopropyl-N-morpholin-4-yl-6-(2,2,2-trifluoro-ethoxy)-nicotinamide], in the experiment on ABCA1 protein, the 50% effective concentration (EC50) stood at 1.77 µM. Moreover, the inhibition at 10 µM at human CB1 receptor is 14%; on human CB2 receptor it was -14%.

Consider `COC[C@@H]1CCCN1NC(=O)c1cnc(OCC(F)(F)F)c(C2CC2)c1` [Example 33, 5-cyclopropyl-N—((S)-2-methoxymethyl-pyrrolidin-1-yl)-6-(2,2,2-trifluoro-ethoxy)-nicotinamide], for which the EC50 in the experiment with ABCA1 protein was found to be 0.68 µM. Besides, the inhibition at 10 µM on human CB1 receptor stood at 21%; on human CB2 receptor it was 3%.

In the case of `CN(NC(=O)c1cnc(OCC(F)(F)F)c(C2CC2)c1)c1ccc(F)cc1` [Example 34, 5-cyclopropyl-6-(2,2,2-trifluoro-ethoxy)-nicotinic acid N′-(4-fluoro-phenyl)-N′-methyl-hydrazide], the concentration for a half-maximal effect (EC50) in the experiment on ABCA1 protein was found to be 0.83 µM. Moreover, the values for the inhibition at 10 µM on human CB1 receptor and on human CB2 receptor were 15% and 8%, respectively.

Take `CN(NC(=O)c1cnc(OCC(F)(F)F)c(C2CCOCC2)c1)c1ccccc1` [Example 35, 5-(tetrahydro-pyran-4-yl)-6-(2,2,2-trifluoro-ethoxy)-nicotinic acid N′-methyl-N′-phenyl-hydrazide]: the concentration giving a half-maximal response (EC50) in the experiment on ABCA1 protein worked out at 2.35 µM. Also, the inhibition at 10 µM on human CB1 receptor is 34%; on human CB2 receptor, 25%.

On to `N#Cc1ccc(-c2cc(C(=O)NN3CCC(O)CC3)cnc2OCC(F)(F)F)cc1` [Example 36, 5-(4-cyano-phenyl)-N-(4-hydroxy-piperidin-1-yl)-6-(2,2,2-trifluoro-ethoxy)-nicotinamide], for which the concentration for a half-maximal effect (EC50) in the experiment on ABCA1 protein stood at 1.86 µM. Also, the inhibition at 10 µM was 10% on human CB1 receptor and -4% on human CB2 receptor.

Take `N#Cc1ccc(-c2cc(C(=O)NN3CCOCC3)cnc2OCC(F)(F)F)cc1` [Example 37, 5-(4-cyano-phenyl)-N-morpholin-4-yl-6-(2,2,2-trifluoro-ethoxy)-nicotinamide]: the EC50 with ABCA1 protein is 1.32 µM. Further, the inhibition at 10 µM on human CB1 receptor is 47%; on human CB2 receptor, -8%.
